A short description of the data set: gradient 5% acetonitrile 3 min, to 50% in 2 min, to 85% in 15 min, held 3 min, 100 µL/min. The settings on record: column: Zorbax Extend-C18 2.1 x 50 mm; eluents: water / acetonitrile, 0.1% formic acid. Put shortly:
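Over 3 months, pure standards in mixtures of ~100 molecules were run by HPLC coupled to a quadrupole time-of-flight mass spectrometer in positive and negative ionization mode. The column was a Zorbax Extend-C18 (2.1 × 50 mm, 1.8 μm) at 100 μL/min, eluted with water and acetonitrile each holding 0.1% formic acid, with 40 μL dead and 900 μL dwell volumes. Retention time was determined from adduct peaks chosen by software and checked manually.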
Turning to `CCc1ccc(-c2nc(-c3ccc(-n4cccn4)nc3)no2)cc1`, the RP-LC retention time turned out to be 1470 s.
`C/C=C(\C)C(=O)O[C@H]1CC[C@@]2(C)[C@@H]3CC[C@H]4[C@]5(O)C[C@H](O)[C@@]6(O)[C@@H](CN7C[C@@H](C)CC[C@H]7[C@@]6(C)O)[C@]5(O)C[C@@]42O[C@]13O` returned an RP-LC retention time of 692 s.
Regarding `Cc1ccccc1-c1csc2c(=O)n(Cc3ccc(N4CCCC4=O)cc3)cnc12`, the RP-LC retention time was 889 s.
`Cc1nnc(-c2ccc3ccn(CC(=O)Nc4ccccc4)c3c2)o1` had an RP-LC retention time of 778 s.
`O=S(=O)(c1ccc(F)cc1)N1CCN(c2cnn3cnnc3c2)CC1` showed an RP-LC retention time of 653 s.
For the compound `CCn1cc(-c2nc(C)c(C(=O)NCc3ccc(OC)cc3)s2)c2cccnc21`, the RP-LC retention time was found to be 902 s.
For `COc1cccc(C2Cn3nnc(-c4nc(-c5ccc(C(C)(C)C)cc5)no4)c3CO2)c1` (stereo not drawn), the RP-LC retention time stood at 1450 s.
Turning to `Cc1cccc(NC(=O)Nc2nccn(-c3ccc4c(c3)CCC4)c2=O)c1`, the RP-LC retention time is 1140 s.
`COc1cccc(-c2cc(N3CCN(C(=O)NC(C)C)CC3)ncn2)c1`: the RP-LC retention time was determined as 612 s.
In turn, `CC1=C(c2ccc(C)cc2)S(=O)(=O)N=C1N1CCCC1` returned an RP-LC retention time of 816 s.
`CCc1ccccc1NC(=O)Cn1ncc2c(c1=O)N(C1CC1)C(=O)CS2` came in with an RP-LC retention time of 718 s.
For the compound `CCOC(=O)C1=C(CN2CCCCCC2)NC(=O)NC1c1ccc(OC(C)C)cc1` (stereo not drawn), the RP-LC retention time is 679 s.
The compound `O=C(CSc1ccncc1)N1CC2CN(S(=O)(=O)c3cccc(F)c3)CC(C1)O2` had an RP-LC retention time of 600 s.
The same measure for `O=C1CC(c2noc(-c3cccc(Cl)c3)n2)CN1c1ccc(F)cc1` (stereo not drawn): 1030 s; for `CCc1cccc(NC(=O)C2CCCN(C(=O)C3Sc4ccccc4NC3=O)C2)c1` (stereo not drawn): 818 s; for `O=C1/C(=C\c2ccc(O)c(O)c2)Oc2cc(O)ccc21`: 710 s.
`O=S(=O)(CCc1noc(-c2nccc3ccccc23)n1)c1ccccc1` came in with an RP-LC retention time of 890 s.
Next, `CCc1noc(-c2cc(=O)n(CC(=O)NC(C)CC)c3ccccc23)n1` (stereo not drawn): 816 s; `Cc1ccc(NC(=O)Cc2csc3nc(-c4ccccc4)cn23)c(Br)c1`: 872 s; `COC(=O)C1=CN(c2ccc(Br)cc2)c2cc(F)ccc2S1(=O)=O`: 939 s.
Consider `COCc1c(C(=O)O)nnn1-c1ccc(C)cc1F`, for which the RP-LC retention time came out at 722 s.
Regarding `Cc1noc(-c2cccn2C)n1`, the RP-LC retention time was 744 s.
In the case of `Cc1c(Cl)cccc1S(=O)(=O)N1CCc2nc(-c3ccc(F)cc3)ncc2C1`, the RP-LC retention time is 1250 s.
As to `COc1ccc(CCS(=O)(=O)Nc2ccc3c(c2)N(C(=O)C2CCCO2)CC3)cc1` (stereo not drawn), the RP-LC retention time is 762 s.
For the compound `Cc1ccc(Cl)cc1N1CCN(C(=O)Cn2nc(C(=O)N3CCCC3)c3ccccc32)CC1`, the RP-LC retention time came to 1010 s.
Next, `O=C(c1ccsc1)N1CCCC(c2nncn2-c2ccccc2)C1` (stereo not drawn): 667 s; `Cc1nc(-c2csc(S(=O)(=O)N3CCCC(C(=O)Nc4cccc(F)c4)C3)c2)no1` (stereo not drawn): 978 s; `CCn1nc(C)n2cc(S(=O)(=O)NCc3cc(F)cc(F)c3)cc2c1=O`: 886 s.
In turn, `O=C(CSc1ccc(N2CCCC(C(=O)NC3CC3)C2)nn1)Nc1ccccc1Br` (stereo not drawn) gave an RP-LC retention time of 664 s.
Compound `O=C1NCCCn2cc(S(=O)(=O)N3CCN(c4cccc(C(F)(F)F)c4)CC3)cc21` showed an RP-LC retention time of 830 s.
In turn, `COc1cccc(-c2noc(Cn3ccn(Cc4ccc(Cl)cc4)c(=O)c3=O)n2)c1` registered an RP-LC retention time of 895 s.
For the compound `CC(C)n1cnnc1CC1CN(C(=O)Nc2ccccc2Cl)C1`, the RP-LC retention time came out at 640 s.
Turning to `CC(=O)N1c2ccc(S(=O)(=O)NCc3ccc4c(c3)CCN4C(=O)CC(C)C)cc2CC1C` (stereo not drawn), the RP-LC retention time turned out to be 874 s.
For the compound `CCOc1ccc(-c2cc(=O)n(CC(=O)NCCn3ncccc3=O)cn2)cc1`, the RP-LC retention time amounted to 614 s.
`O=C(CN1CCC(c2nc(-c3cccs3)no2)CC1)NCc1ccc2c(c1)OCO2` had an RP-LC retention time of 672 s.
The same measure for `O=C(CSc1ccc(N2CCCC(C(=O)NC3CC3)C2)nn1)Nc1ccc(F)cc1Cl` (stereo not drawn): 675 s.
`O=C(CN1CCCc2nc(C3CC3)ncc2C1=O)NCCN1CCOCC1` registered an RP-LC retention time of 554 s.
As to `O=C(C1CCN(S(=O)(=O)c2ccc(-c3noc(C4CC4)n3)cc2)CC1)N1CCCC1`, the RP-LC retention time turned out to be 859 s.
`Cc1noc([C@@H]2CN(C(=O)c3cc(C4CC4)[nH]n3)C[C@H]2C(N)=O)n1` displayed an RP-LC retention time of 596 s.
Next, `O=c1c2cc(-c3ccc(F)cc3)nn2cnn1Cc1nc(-c2ccc(Cl)c(F)c2)no1`: 1260 s; `Cc1ccc(-c2nc(NC3CCCCC3C)c3ccccc3n2)cc1` (stereo not drawn): 906 s.
The compound `CC(C)n1c(=O)c(NCCc2ccc(Cl)cc2)nc2ccncc21` registered an RP-LC retention time of 727 s.
`NCC(O)COCC1COc2ccccc2O1` (stereo not drawn) returned an RP-LC retention time of 549 s.
In turn, `COc1ccc(-n2c(=O)c(C(=O)NCc3ccc4c(c3)OCO4)c(O)c3cccnc32)cc1` displayed an RP-LC retention time of 1090 s.
The compound `COc1ccc(OC)c(NC(=O)C2(C)Oc3cccnc3NC2=O)c1` (stereo not drawn) returned an RP-LC retention time of 746 s.
Compound `Cc1oc2ccn(Cc3ccccc3F)c(=O)c2c1C(=O)NCc1cccs1` gave an RP-LC retention time of 1030 s.
`Cn1cc(C2=CCN(S(=O)(=O)c3ccc(F)cc3)CC2)c2cccnc21` gave an RP-LC retention time of 949 s.
Next, `CCN(CC)CCNC(=O)c1cn(C)nc1S(=O)(=O)N1CCN(c2ccc(Cl)cc2)CC1`: 707 s.
In turn, `Cc1ccc(-c2nnc3ccc(N4CCC(C(=O)NC5CC5)CC4)nn23)cc1` came in with an RP-LC retention time of 736 s.
For `COc1ccccc1CNC(=O)C1CCCN(c2cnc3nc(C)c(C)nc3c2)C1` (stereo not drawn), the RP-LC retention time was determined as 727 s.
The compound `Cc1ccccc1-c1nc(Cn2ccnc2C)no1` yielded an RP-LC retention time of 555 s.
`CCOc1ccc(CNC(=O)C2CCN(S(=O)(=O)c3cn(CC)cn3)CC2)cc1`: the RP-LC retention time was determined as 696 s.
Turning to `O=C(NCc1cc(F)ccc1F)C1CCc2nc(N3CCCC3)ncc2C1` (stereo not drawn), the RP-LC retention time is 646 s.
`COc1cccc(Oc2nccn3c(=O)n(CC(=O)Nc4ccccc4C(F)(F)F)nc23)c1` had an RP-LC retention time of 850 s.
Regarding `COc1ccc(NC(=O)c2cnc(-c3ccc(F)cc3)nc2-c2ccncc2)cc1`, the RP-LC retention time was 856 s.
Compound `CCOc1ccccc1NC(=O)Cn1cnc2nc(N3CCCC(C(=O)NC(C)C)C3)sc2c1=O` (stereo not drawn) gave an RP-LC retention time of 743 s.
`COC(=O)c1ccc2c(=O)n(CCc3ccccc3)c(N3CCC(C(N)=O)CC3)nc2c1` came in with an RP-LC retention time of 774 s.
For `CC(=O)N1c2ccc(S(=O)(=O)N3CCCC3)cc2CC1C(=O)NCCN(C)C1CCCCC1` (stereo not drawn), the RP-LC retention time was determined as 577 s.
`Cc1ccc(-c2cn3ccn(-c4ccc(F)cc4)c(=O)c3n2)cc1C` came in with an RP-LC retention time of 901 s.
For the compound `Cc1ccn(-c2cc(Cl)ccc2[C@@H](Oc2cc(-c3ccc(C[C@H](N)C(=O)O)cc3)nc(N)n2)C(F)(F)F)n1`, the RP-LC retention time is 834 s.
Next, `Cc1ccc(-c2csc(NC(=O)COc3ccccc3C(C)(C)C)n2)cc1`: 1380 s; `CN1CCN(C(=O)c2cn(-c3cc(N4CCSCC4)ncn3)cn2)CC1`: 593 s; `Cc1cc(C(=O)Nc2ccc3c(c2)C(=O)N(C)CCO3)no1`: 624 s.
Next, `NC(=O)C1CCN(C(=O)CN2CCc3ccccc32)CC1`: 610 s; `CCN(CC)C(=O)Cn1c(CO)nc2ccccc21`: 563 s; `CC(Cc1ccco1)NC(=O)c1cc2n(n1)CCCN(Cc1ccccc1)C2=O` (stereo not drawn): 828 s.
Next, `CCCN1C(=O)C(CC(=O)N2CCCC2)Sc2ncccc21` (stereo not drawn): 691 s; `Cc1nn(-c2nc(-c3ccc(Cl)cc3)cs2)c(C)c1CC(=O)Nc1ccccc1F`: 1260 s.
In turn, `COc1ccc(C2(C(=O)N3CC(c4ncc(C)n4Cc4cccnc4)C3)CC2)cc1` gave an RP-LC retention time of 593 s.
For `O=C(Cn1ccn2nc(-c3ccccc3)c(CO)c2c1=O)Nc1cccc(Cl)c1`, the RP-LC retention time turned out to be 856 s.
Take `CCOc1ccc(C2Cn3nnc(-c4nc(-c5ccccn5)no4)c3CO2)cc1` (stereo not drawn): the RP-LC retention time came to 921 s.
As to `O=c1ccc(-c2ccncc2)nn1CCCNS(=O)(=O)/C=C/c1ccccc1`, the RP-LC retention time is 582 s.
Take `N#Cc1cccc(-c2nc(-c3ccc4c(c3)nnn4CCN3CCCCC3)no2)c1`: the RP-LC retention time was 678 s.
With `Cc1oc(-c2[nH]ncc2C(=O)N2CCCC2)cc1S(=O)(=O)NCc1cccnc1`, the RP-LC retention time was 574 s.
The same measure for `Cc1ccc(-c2ccc(-n3nc(C)c(S(=O)(=O)NCc4ccc5c(c4)OCO5)c3C)nn2)cc1`: 1020 s.
In turn, `Cc1nc(-c2cc(S(=O)(=O)NCC(=O)N3CCN(c4cccc(Cl)c4)CC3)c(C)s2)no1` yielded an RP-LC retention time of 829 s.
The compound `O=C(NCc1cccs1)C1CCCN(c2cnc3nccnc3c2)C1` (stereo not drawn) had an RP-LC retention time of 661 s.
In the case of `COc1ccccc1-c1nnc(-c2cc(S(=O)(=O)N3CCOCC3)ccc2Cl)o1`, the RP-LC retention time was determined as 902 s.

Source of the values: the METLIN SMRT retention time set (Domingo-Almenara et al. 2019).
